{
  "source": "patent US20240390499A1",
  "about": "“METHOD” (OSLO UNIVERSITETSSYKEHUS HF, priority 2021, published 2024)",
  "key": {"[1]": {"system": "LN18 cells", "experiment": "MTT cell viability assay, DZ325 + cercosporin (FIG. 1)", "type": "cell-based, human", "description": "FIG. 1—Cell viability of LN18 cells: Compound DZ325+cercosporin.\n(§1) The efficacy of the chemiluminescent compounds DZ325 and EK297 was tested in cell cultures of human glioblastoma multiforme cell lines (U87, T98G, M059K and LN-18).\n(§2) The cells were inoculated in 96-well plates and left to attach overnight at 37° C. in a 5% CO2, humidified atmosphere. Subsequently the cells were incubated with (i) the photosensitizer (cercosporin) or the photosensitizer precursor (5-ALA, for the generation of the photosensitizer PpIX); and (ii) the compound at the appropriate concentration. In the case of 5-ALA, its introduction to the cell culture preceded that of the chemiluminescent compound by 1 hour to ensure adequate PpIX production. In the case of cercosporin, it was administered at the same time as the chemiluminescent compound. […]\n(§3) 24 hours from the introduction of the chemiluminescent compounds to the cells, the cell media was removed and replaced with 100 μL of media containing 0.5 mg/mL thiazolyl blue salts for the performance of a standard MTT viability assay. […] The endpoint absorbance measurement was made at 561 nm. […] The experimental cell viability of the combined treatment (photosensitizer+chemiluminescent compound) was compared to the theoretical additive treatment of the photosensitizer+chemiluminescent compound which was calculated as follows: […]"}, "[2]": {"system": "M059K cells", "experiment": "MTT cell viability assay, DZ325 + cercosporin (FIG. 2)", "type": "cell-based, human", "description": "FIG. 2—Cell viability of M059K cells: Compound DZ325+cercosporin.\nas §1, §2, §3"}, "[3]": {"system": "human glioblastoma multiforme cell lines (U87, T98G, M059K and LN-18)", "experiment": "MTT cell viability assay, chemiluminescent compound plus photosensitizer (FIG. 3)", "type": "cell-based", "description": "as §1\nThe cells were inoculated in 96-well plates and left to attach overnight at 37° C. in a 5% CO2, humidified atmosphere. Subsequently the cells were incubated with (i) the photosensitizer (cercosporin) or the photosensitizer precursor (5-ALA, for the generation of the photosensitizer PpIX); and (ii) the compound at the appropriate concentration. In the case of 5-ALA, its introduction to the cell culture preceded that of the chemiluminescent compound by 1 hour to ensure adequate PpIX production. In the case of cercosporin, it was administered at the same time as the chemiluminescent compound.\nThe chemiluminescent compounds were prepared as 50 mM stock solutions in DMSO (or 1-methyl-2-pyrrolidone) and diluted in cell media to their final concentrations. Cercosporin was prepared as a 4 mM solution in DMSO and appropriately diluted in cell media. 5-ALA was made to its final concentration in Optimem. In the case of the luminol-based compound (DZ325), Cu was in some cases added to the cell media in the form of CuSO4 at a final concentration of 100 μM.\n24 hours from the introduction of the chemiluminescent compounds to the cells, the cell media was removed and replaced with 100 μL of media containing 0.5 mg/mL thiazolyl blue salts for the performance of a standard MTT viability assay. The MTT containing medium was left to incubate for 1 to 3 hours and then removed and replaced with 100 μL DMSO. The endpoint absorbance measurement was made at 561 nm. Media only controls were used as 100% cell viability controls. The experimental cell viability of the combined treatment (photosensitizer+chemiluminescent compound) was compared to the theoretical additive treatment of the photosensitizer+chemiluminescent compound which was calculated as follows:\nIn each figure, one example of synergy is highlighted. […] Calculated cell viability is determined according to the following equation (in which “PS”=photosensitizer; “CL”=chemiluminescent agent): […]"}},
  "data": [
    {"smiles": "Cc1ccc(S(=O)(=O)NCCCNc2cccc3c(=O)[nH][nH]c(=O)c23)cc1", "note": "[DZ325, N-(3-((1,4-dioxo-1,2,3,4-tetrahydrophthalazin-5-yl)amino)propyl)-4-methylbenzenesulfonamide]", "values": [
      {"measurement": "synergy between chemiluminescent compound and photosensitizer", "setting": "[1]", "value": "synergy"},
      {"measurement": "synergy between chemiluminescent compound and photosensitizer", "setting": "[2]", "value": "synergy"}
    ]},
    {"smiles": "Cc1ccc(S(=O)(=O)N2CCN(C(=O)c3cc(Br)c(OC(=O)c4c5ccccc5[n+](C)c5ccccc45)c(Br)c3)CC2)cc1.O=S(=O)([O-])C(F)(F)F", "note": "[EK297, 9-((2,6-dibromo-4-(4-tosylpiperazine-1-carbonyl)phenoxy)carbonyl)-10-methylacridin-10-ium trifluoromethanesulfonate]", "values": [
      {"measurement": "experimental cell viability of combined treatment", "setting": "[3]; 3 μM cercosporin+400 μM EK297, MTT 24 hours, FIG. 3", "value": 21.5, "unit": "%"},
      {"measurement": "calculated cell viability (theoretical additive)", "setting": "[3]; 3 μM cercosporin+400 μM EK297, calculated from single-agent viabilities", "value": 59.5, "unit": "%"},
      {"measurement": "synergy between chemiluminescent compound and photosensitizer", "setting": "[3]; EK297 with cercosporin, experimental vs calculated viability", "value": "cytotoxic synergy"},
      {"measurement": "viability at 400 µM", "setting": "[3]; Homo sapiens, 400 μM EK297 alone, MTT 24 hours, FIG. 3, cell line not stated, read-out: cell viability (printed as 'toxicity')", "value": 74.5, "unit": "%"}
    ]},
    {"smiles": "COc1c(CC(C)O)c2c3c(CC(C)O)c(OC)c(=O)c4c(O)cc5c(c6c(cc(O)c(c1=O)c62)OCO5)c43", "note": "(stereo not shown) [cercosporin, reference compound]", "values": [
      {"measurement": "viability at 3 µM", "setting": "[3]; Homo sapiens, 24 h, read-out: cell viability", "value": 80, "unit": "%"}
    ]}
  ]
}
